Where no end group is shown, it is not given here. The star is where a group is joined. Myristoyl = CCCCCCCCCCCCCC(=O)*
What was measured:
[1] = test system: OVA-allergic mouse airways; experiment: Airway resistance by invasive body plethysmography, murine OVA-allergic model; format: in vivo; settings: peptide i.p. before OVA i.n. challenge
Procedure: (§1) FIG. 2A: Murine OVA-allergic model.
Experiments were carried out as described in FIG. 2A. At day 19, animals were collected for airway resistance as measured by invasive body plethysmography. Data are expressed as the mean±SEM values (n=3). # p<0.05, PBS+OVA compared with the PBS control. *p<0.05, MPS +OVA compared with the PBS+OVA group.

phospho-STAT6 = experiment: IL-13-induced signaling in primary NHBE cells, western blot: phospho-STAT6; format: cell-based, human; settings: air-liquid interface, peptide 50 μM for 4 hrs, then IL-13 20 ng/ml for one hour
[2] = test system: antigen-presenting cells, dendritic cells (DCs); experiment: Homing of antigen-presenting dendritic cells to mediastinal lymph nodes, flow cytometry, Ova-induced allergic mouse asthma; format: in vivo; settings: allergic animal model; OVA-DQ challenge day 15-18; CD11c+ cells in mediastinal lymph nodes
Procedure: For detection of antigen specific DCs migration, mice were challenged with 150 μg OVA-DQ (Life Technologies, Grand Island, N.Y.) for one time per day at day 15-18. Cells were isolated from the mediastinal lymph nodes and lungs. Cells were stained with CD11c conjugated PEC-Cy7 (BD Bioscience, San Jose, Calif.) and analyzed by flow cytometry. Peptides used in this study were (wild type) MPS, A-MPS (mutant 2 in the figure) and D-MPS (mutant 1 in the FIG. 8).

[3] = test system: OVA-allergic mouse airways; experiment: Lung section histology (H&E, PAS), murine OVA-allergic model; format: in vivo; settings: for allergic inflammation associated with allergen/ovalbumin-induced allergic airway disease: mouse
Procedure: as §1
FIGS. 4A-4B show MPS suppressed mucous cell metaplasia (stained by periodic acid stain (PAS)) and inflammatory cells in OVA-allergic mouse airways. Experiments were carried out as described in FIG. 2A. At day 19, animals were sacrificed and lung tissues were fixed for paraffin sections. FIG. 4A: Lung sections were stained by H&E, and PAS staining. Original magnification ×200. FIG. 4B: Quantification of the numbers of H&E-stained cells and PAS-stained cells, and the score of the Masson trichrome staining are presented in bar graphs. Data are expressed as mean±SEM values (n=6).

phospho-MARCKS = experiment: IL-13-induced signaling in primary NHBE cells, western blot: phospho-MARCKS; format: cell-based, human; settings: air-liquid interface, peptide 50 μM for 4 hrs, then IL-13 20 ng/ml for one hour
[4] = test system: BALF inflammatory cytokines (IL-4, IL-5, IL-13, eotaxin; IFN-γ); settings: OVA-allergic mouse airways; MPS 154 μg/mouse/day i.p.; ELISA
[5] = test system: inflammatory cell types in OVA-allergic mouse airways
p-Ser-159/163 MARCKS = settings: MPS 154 μg/mouse/day i.p. day 10-14 prior to OVA i.n. exposure; IHC of lung tissue sections
OVA-specific IgE = settings: OVA-allergic mouse; MPS 154 μg/mouse/day i.p.; ELISA
mucus secretion = settings: previously reported, U.S. Patent Application Publication No. 2009/00220581; cited from earlier work
[6] = day 19, MPS+OVA vs PBS+OVA p<0.05
[7] = OVA-allergic mouse airways, MPS 154 μg/mouse/day i.p., day 19

| Substance | airway hyper-reactivity (airway resistance) [1, 6] | suppression of IL-13-induced phospho-STAT6 elevation (phospho-STAT6) | lymph node homing of antigen presenting cells [2] | allergic inflammation associated with allergen/ovalbumin-induced allergic airway disease [3] | suppression of IL-13-induced phospho-MARCKS elevation (phospho-MARCKS) | airway hyper-reactivity (airway resistance) ([1]; day 19, MPS+OVA vs PBS+OVA p<0.05, listed as (wild-type) MPS) | Th1 cytokine (IFN-γ) in BALF [4] | Th2 cytokines (IL-4, IL-5, IL-13, eotaxin) in BALF [4] | eosinophils (inflammatory response) ([5]; BALF differential cell counts) | presence of various inflammatory cell types in BALF ([5]; MPS 154 μg/mouse/day i.p., day 19) | MARCKS phosphorylation in OVA sensitizing mice (p-Ser-159/163 MARCKS) | serum OVA-specific IgE (OVA-specific IgE) | inflammatory cells in lung tissue (H&E) [3, 7] | mucous cell metaplasia (PAS stain) [3, 7] | mucus secretion (mucus secretion) |
| --- | --- | --- | --- | --- | --- | --- | --- | --- | --- | --- | --- | --- | --- | --- | --- |
| KKKKKRFAFKKAFKLAGFAFKKNKK [A-MPS] | able to suppress | very effective in the suppression | inhibited | able to suppress | very effective in the suppression |  |  |  |  |  |  |  |  |  |  |
| KKKKKRFDFKKDFKLDGFDFKKNKK [D-MPS] | not seen | not | no suppressive effects | not seen | not |  |  |  |  |  |  |  |  |  |  |
| KKKKKRFSFKKSFKLSGFSFKKNKK [MPS] | suppressed | very effective in the suppression | inhibited | able to suppress | very effective in the suppression | able to suppress | not | suppressed specifically | reduction | suppressed | effectively suppress | suppressed | suppressed | suppressed |  |
| myristic acid—KKKKKRFSFKKSFKLSGFSFKKNKK (Myristoyl-KKKKKRFSFKKSFKLSGFSFKKNKK) [myristic acid-wild type MPS disclosed in U.S. 2009/00220581] |  |  |  |  |  |  |  |  |  |  |  |  |  |  | increased |

From US11007248B2, “Suppression of allergic lung inflammation and hyperreactivity” (The Regents of the University of California, priority 2013, dated 2021)
